Source: patent US12522596B2, “Compounds as GLP-1R agonists” (Terns Pharmaceuticals, Inc., priority 2021, dated 2026)
Entries after “also recorded” stand apart in the source; their conditions may differ.

Columns and labels:
[1] = Rat pharmacokinetics, intravenous dosing; type: in vivo, Sprague-Dawley rats; details: for AUC(0-t) / Cmax / clearance / half-life: male, Sprague-Dawley, rat plasma, 1 mg/kg IV (0.5 mg/mL)
Procedure: Intravenous dosing: Compounds were formulated at 0.5 mg/mL in a solution comprising 5% polyethylene glycol 400 and 95% (12% (w/v) sulfobutyl-β-cyclodextrin in water) (v/v). Formulated compounds were sterile filtered through a 0.22 micron filter before dosing. Compounds were administered to male, 7-11-week-old Sprague-Dawley rats by jugular vein cannula infusion over 30 minutes at a dose of 1 mg/kg.
Sample collection: Blood collections of about 0.2 mL per time point were performed from jugular vein or other suitable site of each animal, into pre-chilled commercial EDTA-K2 tubes and placed on wet ice until centrifugation. Blood samples were processed for plasma by centrifugation at approximately 4° C., 3,200 g for 10 min. Plasma was collected and transferred into pre-labeled 96 well plate or polypropylene tubes, quick frozen over dry ice and kept at −60° C. or lower until LC-MS/MS analysis.
Data analysis: Plasma concentration versus time data was plotted in graph and analyzed by non-compartmental approaches using the Phoenix WinNonlin 6.3 software program. Related PK parameters were calculated according to dosing route, e.g., CL, Vdss and C0 for intravenous administration, Cmax, Tmax or % F for extravascular administration, and T1/2, AUC(0-t), AUC(0-inf), MRT(0-t), MRT(0-inf) for all routes.

[2] = tested on: C57BL/6 mice expressing human GLP-1R (hGLP-1R); assay: Food intake in humanized mouse model; type: in vivo; details: hGLP-1R mice, relative to vehicle control; Compound 2 10, 30, 60 mg/kg PO
Procedure: The ability of compounds disclosed herein to modify the food intake of C57BL/6 mice expressing human GLP-1R (hGLP-1R) was evaluated.
The dose protocol used in this study is described in Table 6.
Acclimation and grouping: Mice were acclimated for QD PO dosing with vehicle for 4 days, baseline body weight and food intake were measured for 4 consecutive days. Animals were allocated into 8 groups based on body weight and 3rd day's food intake.
Dose body weight and food intake measurement: All animals were placed in clean cages with sawdust bedding and fasted overnight, mice were dosed with vehicle or test compound in the morning. All group's food was added 15 minutes post dosing, food remaining was recorded at 2-, 4-, 6-, 8-, 10- and 24-h post dosing. (FIG. 4) Body weight was determined on a daily basis during the study.
Data processing and analysis: Manual data were transferred into an excel spreadsheet. All values were expressed as mean±S.E.M. The significances of the differences among groups and within groups are evaluated by one-way or two-way ANOVA using Graph Pad statistic software. A p-value of less than 0.05 was considered statistically significant.

rat hepatocytes = assay: Metabolic stability in rat hepatocytes; type: in vitro ADME
In short: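 Compounds at 1 μM (0.1% DMSO) were incubated with 1×10^6 cells/mL cryopreserved rat or human hepatocytes in DMEM at 37°C for 0–240 min. Parent remaining was measured by LC-MS/MS; k from semi-log decline gave t1/2 and CLint, with CLhep predicted by the well-stirred model.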

[3] = rat, intravenous administration

CLint relative to reference standard (rat hepatocytes)	Half-life relative to reference (rat hepatocytes)	Structure (SMILES)	AUC(0-t) [1]	Cmax [1]	clearance [1]	half-life [1]	longer t1/2 as compared with Reference Compound A [1, 3]	lower clearance as compared with Reference Compound A [1, 3]	food intake [2]
significantly lower	significantly higher	Cc1ncsc1Cn1c(CN2CCC(c3cccc(OCc4ccc(C#N)cc4F)n3)CC2)nc2ccc(C(=O)O)cc21 [Compound 4]	–	–	–	–	–	–	–
significantly lower	significantly higher	N#Cc1ccc(COc2ccnc(C3CCN(Cc4nc5ccc(C(=O)O)cc5n4Cc4cncs4)CC3)n2)c(F)c1 [Compound 20]	–	–	–	–	–	–	–
significantly lower	significantly higher	N#Cc1ccc(COc2cccc(N3CCN(Cc4nc5ccc(C(=O)O)cc5n4Cc4cncs4)CC3)n2)c(F)c1 [Compound 30]	–	–	–	–	–	–	–
significantly lower	significantly higher	CC1(c2ccc(C#N)cc2F)Oc2cccc(C3CCN(Cc4nc5ccc(C(=O)O)cc5n4Cc4cncs4)CC3)c2O1 (stereo not drawn) [Compound 31]	–	–	–	–	–	–	–
–	–	N#Cc1ccc(COc2cccc(C3CCN(Cc4nc5ccc(C(=O)O)cc5n4C[C@@H]4CCO4)CC3)n2)c(F)c1 [Reference Compound A, reference compound]	325 ± 16.8 ng·h/mL	486 ± 37.9 ng/mL	51.2 ± 2.59 mL/min/kg	0.613 ± 0.344 h	–	–	reduction in food intake

Structure (SMILES)	CLint relative to reference standard (rat hepatocytes)	Half-life relative to reference (rat hepatocytes)	AUC(0-t) [1]	Cmax [1]	clearance [1]	half-life [1]	longer t1/2 as compared with Reference Compound A [1, 3]	lower clearance as compared with Reference Compound A [1, 3]	food intake [2]
N#Cc1ccc(COc2cccc(C3CCN(Cc4nc5ccc(C(=O)O)cc5n4Cc4cncs4)CC3)n2)c(F)c1 [Compound 2]	not significantly different	–	427 ± 27.7 ng·h/mL	596 ± 42.3 ng/mL	38.8 ± 2.55 mL/min/kg	1.57 ± 0.583 h	~2 fold	30%	reduction in food intake; also recorded: significantly suppressed food intake
